From patent US20040138302A1, “Antifungal antibiotics” (Wyeth Holdings Corporation, priority 2002, published 2004)
≈ marks a conversion by molar mass, not a printed value. Like-named read-outs stand apart in the source and are kept apart here. Blank lines part the entries; values can stand above or below the compound they belong to.

Key:
Candida lustitaniae = assay: Broth microdilution antifungal MIC (NCCLS); format: cell-based; conditions: Candida lustitaniae 94-3, RPMI-1640, 35° C., 24-48 hours
Method: (§1) The antifungal activity of Hygroscopene A is determined by a broth microdilution method as recommended by the National Committee for Clinical Laboratory Standard (NCCLS) (1, 2). Sterile, disposable, multiwell plates (96 U-shaped wells) containing serial dilutions of Hygroscopene A and a control drug (Amphotericin B) are prepared in a 100 μl volume with RPMI-1640 broth supplemented with 0.2% sodium bicarbonate and […] [3-(N-morpholino) propanesulfonic acid] buffer. RPMI-1640 is a completely synthetic medium that supports the growth of most fungi. Antimicrobial agent concentrations ranged from 0.06-64 μg/ml. Five colonies from 24-hour old yeast culture or 48-hour old filamentous fungi culture were suspended in 0.85% saline. The suspensions are diluted in RPMI-1640 broth and inoculated in to plates (100 μl/well) containing antimicrobial agents. The final inocula of yeast or fungi are 0.5-2.5×10^3 CFU/ml and 0.4×10^4-5×10^4 CFU/ml respectively. Plates are incubated at 35° C. for 24-72 hours in ambient air. Hygroscopene A is tested against a panel of pathogenic yeast and filamentous fungi, which consisted of Candida sp. and Aspergillus sp. The yeast and fungal strains tested are clinical isolates or were purchased from American Type Culture Collection (ATCC) (Rockville, Md.). […] The MIC values for yeast are determined after 24-48 hours of incubation. For filamentous fungi, the MIC is determined after 72 hours of incubation.

Candida tropicalis = assay: Broth microdilution antifungal MIC (NCCLS); format: cell-based; conditions: RPMI-1640, 35° C., 24-48 hours
Method: as §1

Candida pseudotropicalis = assay: Broth microdilution antifungal MIC (NCCLS); format: cell-based; conditions: Candida pseudotropicalis ATCC 28838, RPMI-1640, 35° C., 24-48 hours
Method: as §1

Candida parapsilosis = assay: Broth microdilution antifungal MIC (NCCLS); format: cell-based; conditions: RPMI-1640, 35° C., 24-48 hours
Method: as §1

Aspergillus fumigatus = assay: Broth microdilution antifungal MIC (NCCLS); format: cell-based; conditions: Aspergillus fumigatus S-430; RPMI-1640, 35° C., 72 hours
Method: as §1

Candida rugosa = assay: Broth microdilution antifungal MIC (NCCLS); format: cell-based; conditions: Candida rugosa 94-10, RPMI-1640, 35° C., 24-48 hours
Method: as §1

Candida krussii = assay: Broth microdilution antifungal MIC (NCCLS); format: cell-based; conditions: Candida krussii 94-2, RPMI-1640, 35° C., 24-48 hours
Method: as §1

Aspergillus niger = assay: Broth microdilution antifungal MIC (NCCLS); format: cell-based; conditions: Aspergillus niger ATCC 26933, RPMI-1640, 35° C., 72 hours
Method: as §1

Candida albicans = assay: Broth microdilution antifungal MIC (NCCLS); format: cell-based; conditions: RPMI-1640, 35° C., 24-48 hours
Method: as §1

[1] = Solubility (physico-chemical properties); format: physicochemical; conditions: solvents MeOH, EtOH, DMSO

MIC (Candida lustitaniae; read-out: MIC): 1 µg/mL (≈ 0.821 µM)
MIC (Candida tropicalis; Candida tropicalis 94-13, read-out: MIC): 1 µg/mL (≈ 0.821 µM)
MIC (Candida tropicalis; Candida tropicalis 94-14): 1.0 µg/mL (≈ 0.821 µM)
MIC (Candida pseudotropicalis; Kluyveromyces marxianus, ATCC28838, read-out: MIC): 2 µg/mL (≈ 1.64 µM)
MIC (Candida parapsilosis; Candida parapsilosis 94-9): 2.0 µg/mL (≈ 1.64 µM)
MIC (Candida parapsilosis; Lodderomyces parapsilosis, ATCC90018, Candida parapsilosis ATCC 90018, read-out: MIC): 2 µg/mL (≈ 1.64 µM)
MIC (Candida parapsilosis; Lodderomyces parapsilosis, Candida parapsilosis 94-8, read-out: MIC): 2 µg/mL (≈ 1.64 µM)
MIC (Aspergillus fumigatus): 2 µg/mL (≈ 1.64 µM)
MIC (Candida rugosa; Diutina rugosa, read-out: MIC): 1 µg/mL (≈ 0.821 µM)
MIC (Candida krussii; read-out: MIC): 1 µg/mL (≈ 0.821 µM)
MIC (Aspergillus niger; ATCC26933, read-out: MIC): 8 µg/mL (≈ 6.57 µM)
MIC (Candida albicans; Candida albicans, ATCC90028, Candida albicans ATCC 90028, read-out: MIC): 2 µg/mL (≈ 1.64 µM)
MIC (Candida albicans; Candida albicans, Candida albicans 1063, read-out: MIC): 2 µg/mL (≈ 1.64 µM)
MIC (Candida albicans; Candida albicans, Candida albicans 1117, read-out: MIC): 1 µg/mL (≈ 0.821 µM)
Solubility [1]: Soluble in MeOH, EtOH, DMSO
Structure (SMILES): C\C(=C/C=C/C=C/CC/C=C/C(C)C(O)C(C)C(O)/C=C/C=C/C=C/C=C/C=C/C=C/CC(OS(=O)(=O)O)C(C)C(=O)CC(O)CC(O)/C=C/CC(O)CC(O)/C=C/CC(O)CC(O)CC(O)/C=C/CC(O)CC(O)CCCNC(=N)N)C(=O)O (stereo not drawn) [Hygroscopene A]

MIC (Candida lustitaniae): 0.125 µg/mL (≈ 0.135 µM)
MIC (Candida tropicalis; Candida tropicalis 94-13): 0.25 µg/mL (≈ 0.271 µM)
MIC (Candida tropicalis; Candida tropicalis 94-14): 0.25 µg/mL (≈ 0.271 µM)
MIC (Candida pseudotropicalis): 0.25 µg/mL (≈ 0.271 µM)
MIC (Candida parapsilosis; Candida parapsilosis 94-8): 0.25 µg/mL (≈ 0.271 µM)
MIC (Candida parapsilosis; Candida parapsilosis 94-9): 0.25 µg/mL (≈ 0.271 µM)
MIC (Candida parapsilosis; Candida parapsilosis ATCC 90018): 0.25 µg/mL (≈ 0.271 µM)
MIC (Candida rugosa): 0.50 µg/mL (≈ 0.541 µM)
MIC (Candida krussii): 0.50 µg/mL (≈ 0.541 µM)
MIC (Aspergillus niger): 0.50 µg/mL (≈ 0.541 µM)
MIC (Candida albicans; Candida albicans 1063): 0.125 µg/mL (≈ 0.135 µM)
MIC (Candida albicans; Candida albicans 1117): 0.125 µg/mL (≈ 0.135 µM)
MIC (Candida albicans; Candida albicans ATCC 90028): 0.25 µg/mL (≈ 0.271 µM)
Structure (SMILES): C[C@@H]1[C@H](O)[C@@H](C)/C=C/C=C/C=C/C=C/C=C/C=C/C=C/[C@H](O[C@@H]2O[C@H](C)[C@@H](O)[C@H](N)[C@@H]2O)C[C@@H]2O[C@](O)(C[C@@H](O)C[C@@H](O)[C@H](O)CC[C@@H](O)C[C@@H](O)CC(=O)O[C@H]1C)C[C@H](O)[C@H]2C(=O)O [Amphotericin B, reference compound]

Solubility [1]: Soluble in MeOH, EtOH, DMSO
Structure (SMILES): C\C(=C/C=C/C=C/CC/C=C/C(C)C(O)C(C)C(O)/C=C/C=C/C=C/C=C/C=C/C=C/CC(OS(=O)(=O)O)C(C)C(=O)CC(O)CC(O)/C=C/CC(O)CC(O)/C=C/CC(O)CC(O)CC(O)/C=C/CC(O)CC(O)CCCN)C(=O)O (stereo not drawn) [Hygroscopene B]

Solubility [1]: Soluble in MeOH, EtOH, DMSO
Structure (SMILES): C\C(=C/C=C/C=C/CC/C=C/C(C)C(O)C(C)C(O)/C=C/C=C/C=C/C=C/C=C/C=C/CC(O)C(C)C(=O)CC(O)CC(O)/C=C/CC(O)CC(O)/C=C/CC(O)CC(O)CC(O)/C=C/CC(O)CC(O)CCCN)C(=O)O (stereo not drawn) [Hygroscopene C]
